Measurements taken from US11584747B2, “Substituted pyridopyrimidinonyl compounds useful as T cell activators” (BRISTOL-MYERS SQUIBB COMPANY, priority 2019, dated 2023).
Where two headings read alike, the source gives them in different places.

Experiments:
[1] = system: human venous whole blood (IFN-γ); experiment: Human whole blood IFN-γ assay; type: cell-based
Experimental: Human venous whole blood (22.5 μL per well), obtained from healthy donors, was pre-treated with compounds for one hour at 37° C. in a humidified 95% air/5% CO2 incubator. The blood was stimulated with 2.5 μL anti-human CD3 and anti-CD28 mAb at a final concentration of 1 μg/mL each for 24 hours at 37° C. IFN-γ in the supernatants was measured using AlphLISA kit (Cat #AL217).

human DGKζ = human DGKζ (Homo sapiens (Human), UniProt Q13574); experiment: DGKζ LIPGLO assay (extruded liposome substrate, ADP-Glo luminescence); type: biochemical
Sequence of human DGKζ (Q13574 other isoform, or with tags, fused parts or gaps): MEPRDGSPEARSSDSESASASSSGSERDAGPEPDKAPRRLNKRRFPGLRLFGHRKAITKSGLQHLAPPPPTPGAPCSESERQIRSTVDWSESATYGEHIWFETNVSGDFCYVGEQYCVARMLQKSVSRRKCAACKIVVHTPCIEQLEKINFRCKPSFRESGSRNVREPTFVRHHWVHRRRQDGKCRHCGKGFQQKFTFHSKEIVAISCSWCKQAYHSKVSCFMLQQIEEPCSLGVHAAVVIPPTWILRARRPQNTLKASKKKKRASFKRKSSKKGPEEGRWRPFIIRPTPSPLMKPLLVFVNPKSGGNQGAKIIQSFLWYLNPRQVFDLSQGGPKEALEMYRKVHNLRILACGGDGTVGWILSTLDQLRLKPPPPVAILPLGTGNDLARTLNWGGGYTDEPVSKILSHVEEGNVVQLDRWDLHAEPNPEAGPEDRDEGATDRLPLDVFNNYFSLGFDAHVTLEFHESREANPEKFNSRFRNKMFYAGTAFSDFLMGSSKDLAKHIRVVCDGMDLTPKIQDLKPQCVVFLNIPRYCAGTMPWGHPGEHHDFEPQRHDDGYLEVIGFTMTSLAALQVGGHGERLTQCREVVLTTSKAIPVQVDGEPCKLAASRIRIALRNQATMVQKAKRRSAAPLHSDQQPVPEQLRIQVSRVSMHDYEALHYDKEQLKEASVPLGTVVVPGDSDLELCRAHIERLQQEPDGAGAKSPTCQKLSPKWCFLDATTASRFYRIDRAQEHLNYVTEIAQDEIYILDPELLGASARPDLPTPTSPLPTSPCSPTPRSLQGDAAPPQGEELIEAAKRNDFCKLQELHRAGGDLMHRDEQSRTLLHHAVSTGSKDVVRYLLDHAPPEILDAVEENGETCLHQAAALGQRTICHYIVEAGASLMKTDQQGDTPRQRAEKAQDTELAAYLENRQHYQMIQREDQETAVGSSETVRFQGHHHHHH

human DGKα = human DGKα (Homo sapiens (Human), UniProt P23743); experiment: DGKα LIPGLO assay (extruded liposome substrate, ADP-Glo luminescence); type: biochemical
Sequence of human DGKα (P23743 whole entry, looked up): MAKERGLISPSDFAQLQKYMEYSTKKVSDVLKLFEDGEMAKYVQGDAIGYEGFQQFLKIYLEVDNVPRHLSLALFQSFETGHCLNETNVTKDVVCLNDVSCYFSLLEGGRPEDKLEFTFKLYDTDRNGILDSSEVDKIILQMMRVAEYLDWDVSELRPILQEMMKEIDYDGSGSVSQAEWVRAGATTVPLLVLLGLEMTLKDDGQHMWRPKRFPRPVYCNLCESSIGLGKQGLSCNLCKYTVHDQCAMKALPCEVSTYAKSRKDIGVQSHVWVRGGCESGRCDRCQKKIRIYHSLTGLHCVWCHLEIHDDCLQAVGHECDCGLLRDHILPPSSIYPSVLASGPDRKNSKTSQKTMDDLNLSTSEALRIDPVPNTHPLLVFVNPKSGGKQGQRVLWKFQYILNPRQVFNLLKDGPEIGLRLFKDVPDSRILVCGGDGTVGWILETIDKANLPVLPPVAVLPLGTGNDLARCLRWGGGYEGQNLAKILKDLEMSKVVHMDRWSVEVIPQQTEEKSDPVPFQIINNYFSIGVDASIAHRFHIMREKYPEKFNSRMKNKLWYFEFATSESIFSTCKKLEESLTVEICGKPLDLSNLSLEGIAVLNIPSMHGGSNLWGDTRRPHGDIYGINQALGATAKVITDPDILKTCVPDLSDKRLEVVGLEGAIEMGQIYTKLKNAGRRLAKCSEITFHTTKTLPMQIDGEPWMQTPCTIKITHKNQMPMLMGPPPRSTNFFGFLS

[2] = whole blood, normalized to 3 μM reference compound as 100% activation, read-out: IFN-γ Whole Blood Normalized EC50
[3] = liposome assay, read-out: DGK zeta LIPGLO IC50
[4] = liposome assay, read-out: DGK alpha LIPGLO IC50
[5] = Homo sapiens, whole blood, normalized to 3 μM reference compound as 100% activation, read-out: IFN-γ Whole Blood Normalized EC50
[6] = liposome (LIPGLO) assay, read-out: DGK zeta (liposome assay) IC50
[7] = liposome (LIPGLO) assay, read-out: DGK alpha (liposome assay) IC50

Structure (SMILES)	EC50 [1, 2] [nM]	IC50 (human DGKζ; [3]) [nM]	IC50 (human DGKα; [4]) [nM]	EC50 [1, 5] [nM]	EC50 ([1]; Homo sapiens, 24 h, human whole blood, anti-CD3 plus anti-CD28 stimulation, 24 hours, read-out: IFN-γ Whole Blood EC50) [nM]	IC50 (human DGKζ; [6]) [nM]	IC50 (human DGKα; [7]) [nM]	EC50 ([1]; human whole blood, anti-CD3 plus anti-CD28 stimulation, 24 hours, read-out: IFN-γ Whole Blood EC50) [nM]
C[C@@H]1CN(c2nc(=O)n(C)c3ccc(C#N)nc23)[C@@H](C)CN1C(c1ccc(F)cc1)c1nc(C2CC2)cs1 (single isomer, unassigned) [Example 159]	250	38	94	–	–	–	–	–
COC[C@@H]1CN(c2nc(=O)n(C)c3ccc(C#N)nc23)[C@@H](C)CN1C(C)c1ccc(C(F)(F)F)cc1 (single isomer, unassigned) [Example 174]	140	140	590	–	–	–	–	–
C[C@@H]1CN(c2nc(=O)n(C)c3ccc(C#N)nc23)[C@@H](C)CN1C(c1ccc(F)cc1)c1nc(C2CC2)no1 (single isomer, unassigned) [Example 106]	240	130	39	–	–	–	–	–
CC(c1cc(F)c(F)c(F)c1)N1C[C@H](C)N(c2nc(=O)n(C)c3ccc(C#N)nc23)C[C@H]1C (single isomer, unassigned) [Example 139]	–	2880	25600	20000	–	–	–	–
CC[C@@H]1CN(c2nc(=O)n(C)c3ccc(C#N)nc23)[C@@H](C)CN1C(C)c1ccc2c(c1)OC(F)(F)O2 (single isomer, unassigned) [Example 71]	66	22	670	–	–	–	–	–
CC(c1ccc(C(F)(F)F)cc1)N1C[C@H](C)N(c2nc(=O)n(C)c3ccc(C#N)nc23)C[C@H]1C (single isomer, unassigned) [Example 140]	430	360	180	–	–	–	–	–
C[C@@H]1CN(c2nc(=O)n(C)c3ccc(C#N)nc23)[C@@H](C)CN1C(c1ccc(Cl)cc1)c1ccc(Cl)cc1 [Example 373, 4-((2 S, 5R)-4-(bis(4-chlorophenyl)methyl)-2,5-dimethylpiperazin-1-yl)-1-methyl-2-oxo-1,2-dihydropyrido[3,2-d]pyrimidine-6-carbonitrile]	–	–	–	–	170	2550	860	–
CC[C@H]1CN(C(C)c2ccc(C(C)(C)C#N)cc2)[C@H](CC)CN1c1nc(=O)n(C)c2ccc(C#N)nc12 (stereo partly drawn) [Example 197, 4-((2S,5R)-4-(1-(4-(2-cyanopropan-2-yl)phenyl)ethyl)-2,5-diethylpiperazin-1-yl)-1-methyl-2-oxo-1,2-dihydropyrido[3,2-d]pyrimidine-6-carbonitrile]	310	220	1470	–	–	–	–	–
CC(c1ccc2c(c1)OC(F)(F)O2)N1C[C@H](C)N(c2nc(=O)n(C)c3ccc(C#N)nc23)C[C@H]1C (single isomer, unassigned) [Example 166]	500	330	5390	–	–	–	–	–
CC[C@@H]1CN(c2nc(=O)n(C)c3ccc(C#N)nc23)[C@@H](C)CN1C(C)c1ccc(OC(C)C)cc1 (single isomer, unassigned) [Example 53]	200	79	630	–	–	–	–	–
CC[C@@H]1CN(c2nc(=O)n(C)c3ccc(C#N)nc23)[C@@H](C)CN1C(C)c1ccc(C(F)(F)F)cc1F (single isomer, unassigned) [Example 59]	500	260	300	–	–	–	–	–
CC(c1ccc(OC(C)(C)C#N)cc1)N1C[C@H](C)N(c2nc(=O)n(C)c3ccc(C#N)nc23)C[C@H]1C (stereo partly drawn) [Example 376, 4-((2S,5R)-4-(1-(4-((2-cyanopropan-2-yl)oxy)phenyl)ethyl)-2,5-dimethylpiperazin-1-yl)-1-methyl-2-oxo-1,2-dihydropyrido[3,2-d]pyrimidine-6-carbonitrile]	–	–	–	–	–	97	30	58
CC[C@@H]1CN(c2nc(=O)n(C)c3ccc(C#N)nc23)[C@@H](C)CN1C(C)c1ccc(OC(F)(F)F)cc1 (single isomer, unassigned) [Example 49]	2340	850	390	–	–	–	–	–
C[C@@H]1CN(c2nc(=O)n(C)c3ccc(C#N)nc23)[C@@H](C)CN1C(c1ccc(OC(F)(F)F)cc1)c1cc(C2CC2)on1 (single isomer, unassigned) [Example 165]	630	370	380	–	–	–	–	–
CCC(c1ccc(OC(F)(F)F)cc1F)N1C[C@H](C)N(c2nc(=O)n(C)c3ccc(C#N)nc23)C[C@H]1C (single isomer, unassigned) [Example 153]	2310	1980	690	–	–	–	–	–
CC[C@H]1CN(C(C)c2ccc(C(F)(F)F)cc2)[C@H](C)CN1c1nc(=O)n(C)c2ccc(C#N)nc12 (stereo partly drawn) [Example 116, 4-((2S,5R)-2-ethyl-5-methyl-4-(1-(4-(trifluoromethyl)phenyl)ethyl)piperazin-1-yl)-1-methyl-2-oxo-1,2-dihydropyrido[3,2-d]pyrimidine-6-carbonitrile]	1430	2110	1000	–	–	–	–	–
CC[C@H]1CN(C(c2ccc(F)cc2)c2ccc(C(F)(F)F)cn2)[C@H](C)CN1c1nc(=O)n(C)c2ccc(C#N)nc12 (stereo partly drawn) [Example 114, 4-((2S,5R)-2-ethyl-4-((4-fluorophenyl)(5-(trifluoromethyl)pyridin-2-yl)methyl)-5-methylpiperazin-1-yl)-1-methyl-2-oxo-1,2-dihydropyrido[3,2-d]pyrimidine-6-carbonitrile]	470	440	160	–	–	–	–	–
CC[C@@H]1CN(c2nc(=O)n(C)c3ccc(C#N)nc23)[C@@H](CC)CN1Cc1ccc2c(c1)OC(F)(F)O2 [Example 13, 4-((2S,5R)-4-((2,2-difluorobenzo[d][1,3]dioxol-5-yl)methyl)-2,5-diethylpiperazin-1-yl)-1-methyl-2-oxo-1,2-dihydropyrido[3,2-d]pyrimidine-6-carbonitrile]	–	230	700	2120	–	–	–	–
C[C@@H]1CN(c2nc(=O)n(C)c3ccc(C#N)nc23)[C@@H](C)CN1Cc1ccc(F)c(F)c1 [Example 133, 4-((2 S,5R)-4-(3,4-difluorobenzyl)-2,5-dimethylpiperazin-1-yl)-1-methyl-2-oxo-1,2-dihydropyrido[3,2-d]pyrimidine-6-carbonitrile]	–	240	530	710	–	–	–	–
CC[C@H]1CN(C(C)c2ccc(OCC3CC3)cc2)[C@H](CC)CN1c1nc(=O)n(C)c2ccc(C#N)nc12 (single isomer, unassigned) [Example 24]	450	630	680	–	–	–	–	–
CC[C@@H]1CN(c2nc(=O)n(C)c3ccc(C#N)nc23)[C@@H](C)CN1C(C)c1ccc(C(F)(F)F)cc1F (single isomer, unassigned) [Example 58]	22	54	270	–	–	–	–	–
CC[C@H]1CN(C(C)c2ccc(OC)cc2)[C@H](CC)CN1c1nc(=O)n(C)c2ccc(C#N)nc12 (single isomer, unassigned) [Example 17]	–	2140	320	2890	–	–	–	–
CC[C@@H]1CN(c2nc(=O)n(C)c3ccc(C#N)nc23)[C@@H](C)CN1C(C)c1ccc(C2CC2)cc1F (single isomer, unassigned) [Example 91]	–	44	330	190	–	–	–	–
CC(c1ccc(C2CC2)cc1)N1C[C@H](C)N(c2nc(=O)n(C)c3ccc(C#N)nc23)C[C@H]1C (single isomer, unassigned) [Example 4]	970	760	1330	–	–	–	–	–
CC(c1ccc(C2CC2)cc1)N1C[C@H](C)N(c2nc(=O)n(C)c3ccc(C#N)nc23)C[C@H]1C (single isomer, unassigned) [Example 3]	31	110	190	–	–	–	–	–
